According to publication PMC9085437, “Silica-coated magnetic iron oxide functionalized with hydrophobic polymeric ionic liquid: a promising nanoscale sorbent for simultaneous extraction of antidiabetic drugs from human plasma prior to their quantitation by HPLC” (RSC Advances, 2018):

Assay: Pharmacokinetic assessment in healthy fed male volunteers after oral tablet administration, plasma quantified by MSPE-HPLC-UV
Conditions: human, in vivo, 25 mg
Protocol: The chromatographic analysis was conducted using a Waters alliance e2695, (Massachusetts, USA) system which was equipped with a Waters 2487 dual wavelength detector and C18 TMS endcapping/reversed phase column (Luna 5 μm C18 100 A HPLC column 250 × 4.6 mm id, Phenomenex Co, Torrance, CA) at 40 °C. The mobile phase which being used in an isocratic mode was composed of potassium dihydrogen phosphate and sodium dodecyl sulfate (0.01 M, pH 6): acetonitrile (55 : 45, v/v) and passed through column with flow rate of 1 mL min^−1 (the mobile phase was filtered and degassed daily prior to use in HPLC). […] The column effluent was monitored at UV wavelength of 215 nm and the injection volume was 20.0 μL. The mobile phase was filtered by passing it through a 0.2 μm membrane filter (Millipore, Bedford, MA, USA).
Every frozen human plasma were firstly thawed at room temperature and placed into a sample glass tube. Preparation of plasma before MSPE method was based on protein precipitation with aid of acetonitrile. In this regard, the plasma (1.9 mL) was fortified with 100.0 μL of required concentrations of analytes followed by mixing with 2.0 mL ACN. The obtained solution was vortexed for 1 min and centrifuged for 5 min at 3500 rpm. Then, ACN content of the clear supernatant was evaporated under nitrogen stream and the remaining sample was transferred into 4.0 mL buffer solution at pH 4.0. Sample volume after evaporation under nitrogen stream was about 2 mL and total sample volume after transferring to 4 mL buffer solution was about 6 mL. 5.0 mL of the deproteinized samples containing target drugs were subjected to the extraction procedure for subsequent analysis.
Initially, 5.0 mL of the deproteinized human plasma (initial volume of spiked plasma sample 2.0 mL) was placed into a glass tube and 10.0 mg of magnetic Fe3O4@SiO2@PIL was added to the sample. The mixture was sonicated for 4 min to totally disperse the magnetic sorbent through the matrix and complete the extraction of target drugs at room temperature. Analyte-loaded sorbent was collected from the sample solution by exposing the glass tube to a powerful neodymium–iron–boron (Nd–Fe–B) magnet (5 × 5 × 4 cm, 0.8 tesla), and the upper phase was poured out. Later, the adsorbed analytes were eluted by 1.0 mL of acetonitrile (0.5 mL every time and washed two times) to desorb the analytes. Elution process was completed during 2 min in the ultrasonic bath. The magnet was used again to separate the sorbent and then the total volume of eluted solution was collected and evaporated to dryness under stream of the nitrogen. The dry residue was re-dissolved in 100.0 μL of mobile phase and stirred for 1 min. Finally, 20.0 μL of this solution was injected into the HPLC-UV system for analysis.
Eight healthy fed male volunteers within the age range of 28–42 years old were enrolled in these studies. […] The plasma samples were immediately transferred into a clean polypropylene tube and stored at −18 °C until being used. All assessments were approved by “The Committee For Research Ethics” of Department of Pharmacy and Pharmaceutical Sciences Research Center, Tehran University of Medical Sciences. In the next experiments, a single oral dose administration of Jardiance tablet (25 mg EMPA) was performed to four volunteers and the blood samples were collected and treated as the previous experiments. Each real sample was extracted at optimal conditions by the proposed procedure and the mean plasma concentration–time curve was obtained.

## OC[C@H]1O[C@@H](c2ccc(Cl)c(Cc3ccc(O[C@H]4CCOC4)cc3)c2)[C@H](O)[C@@H](O)[C@@H]1O [EMPA, empagliflozin]
  AUC(0-inf): 1430 ± 151 ng·h/mL
  AUC(0-t): 1400 ± 122 ng·h/mL
  Cmax: 216 ± 44.1 ng/mL
  Tmax: 2.9 ± 0.3 h
  half-life: 7.2 ± 1.1 h
